The record followed here is patent US20150031045A1, “MARKERS FOR DIAGNOSING AMYOTROPHIC LATERAL SCLEROSIS” (University Of Maryland, priority 2012, published 2015).

Entries after “also recorded” stand apart in the source; their conditions may differ.

Experiment [1] concerns SR Ca^2+ ATPase (SERCA). As to the kind of experiment: Maximum Ca2+ ATPase activity in skeletal muscle homogenates. The following applies: 10 mg/kg 6-gingerol for 10 weeks, p<0.05 vs. ALS-Veh. The format is in vivo, mice. How it is done: To further examine the effects of 6-gingerol treatment, maximum Ca^2+ ATPase activity was measured in control (CON) and G93A*SOD1 (ALS) mice treated with vehicle (Veh) or 6-gingerol (Gingerol). Specifically, ALS mice received 10 mg/kg 6-gingerol for 10 weeks. The vehicle was administered in parallel to the CON-Veh and ALS-Veh groups of mice.
SR Ca^2+ ATPase (SERCA) activity in skeletal muscle homogenates obtained from the mice was then measured and the average data for all groups is shown in FIG. 31, in which CON (n=5), ALS-Veh (n=5), and ALS-Gin (n=5). In FIG. 31, *=p<0.05 vs. CON-Veh and #=p<0.05 vs. ALS-Veh.

Experiment [2] relates to PDI. As to the kind of experiment: PDI protein level in gastrocnemius muscle by western blot. As to conditions: n=5. Type of experiment: in vivo, mice. The method, then:
(§1) As described above in Examples 15-18, ALS mice administered 6-gingerol had improved muscle function, improved intracellular calcium clearance, increased SERCA1 protein levels, and decreased CHOP protein levels. To further examine the response of skeletal muscle to 6-gingerol treatment, the levels of ER stress proteins PERK, GRP78/BiP, PDI, and IRE1α were measured in the gastrocnemius muscle of control (CON) and G93A*SOD1 (ALS) mice treated with vehicle (Veh) or 6-gingerol (Gin). Specifically, the protein levels were measured by western blotting. Each group had five mice, i.e., CON (n=5), ALS-Veh (n=5), and ALS-Gin (n=5).
(Immunoblotting shows a protein as a band on a membrane.)

In experiment [3] the test system is PERK. As to the kind of experiment: PERK protein level in gastrocnemius muscle by western blot. Type of experiment: in vivo, mice. The following applies: n=5. How it is done: as §1
In experiment [4] the test system is IRE1α. As to the kind of experiment: IRE1α protein level in gastrocnemius muscle by western blot. Type of experiment: in vivo, mice. As to conditions: n=5. The method, then: as §1
The subject of experiment [5] is SERCA1. The experiment is described as follows: SERCA1 protein level in gastrocnemius muscle by western blot. Type of experiment: in vivo, mice. As to conditions: 10 mg/kg ip daily; levels nearing those in CON muscle; p<0.05 vs. ALS-Veh. From the text: (§2) The superficial (SP) and deep (DP) portions of the gastrocnemius muscle (SP GAS and DP GAS, respectively) were used for analysis of Ca^2+ regulatory protein levels by western blot. Anatomically, the gastrocnemius muscle is composed of a lateral and medial head, with a similar mixture of fibres types in the two heads: lateral gastrocnemius is 69% fast glycolytic (FG), 30% fast oxidative and glycolytic (FOG) and 1% slow oxidative (SO) fibres and medial gastrocnemius is 55% FG, 32% FOG and 8% SO. The muscle was divided by superficial vs. deep portions due to their glycolytic (white) vs. oxidative (red) differences, respectively. […] Protein levels were determined using a BCA protein kit (Thermo Scientific). […] For assessment of changes in sarcoplasmic reticulum (SR)/endoplasmic reticulum (ER) Ca^2+ (SERCA) pump, SERCA1 and SERCA2 protein levels were measured. Specifically, 15 μg protein was loaded on 8% gels and analyzed by polyacrylamide gel electrophoresis (PAGE). Levels of parvalbumin (PV) were assessed by loading 2.5 μg protein on 15% gels. […] Level of each respective protein was quantified by chemiluminescence using SuperSignal West Dura Chemiluminescent Substrate (Thermo Scientific) and imaged using a chemiluminescence imaging system (GeneGnome, Syngene). Protein expression levels are expressed as Arbitrary Units (AU). […]

In experiment [6] the test system is SERCA2. As to the kind of experiment: SERCA2 protein level in skeletal muscle by western blot. The format is in vivo, mice. As to conditions: 10 mg/kg ip daily.
Source text: as §2

Experiment [7] is described as follows: Body weight of G93A*SOD1 ALS mice treated with 6-gingerol. Type of experiment: in vivo. How it is done: (§3) The study used 12 mice. At 35 d, mice were assigned to treatment groups. The 3 groups in the study were: i) wild-type control mice treated with vehicle (CON-Veh; n=4; 3 female (F) and 1 male (M)); ii) G93A*SOD1 ALS mice treated with vehicle (ALS-Veh; n=4; 3 F and 1 M; and iii) G93A*SOD1 mice treated with 6-Gingerol (ALS-Gin; n=4; 3 F and 1 M). There were no 6-gingerol treated control mice due to cost of the drug.
(§4) 6-gingerol was purchased from Carbosynth Limited, UK. Mice were dosed daily with intraperitoneal (ip) injection of vehicle (0.4% ethanol in PBS) or 6-gingerol at a dose of 10 mg/kg. Treatment began when mice were 35 d old and terminated at 115 d. The volume dosed was adjusted weekly according to changes in body weight.
In this study, mice were evaluated at an average age of 115±5 d (for CON-Veh, ALS-Veh and ALS-Gin), just prior to severe symptom onset. […] There was also a significant reduction in muscle mass in ALS vs. CON mice and a 21% improvement in muscle mass with 6-gingerol (CON-Veh: 0.111±0.015 g; ALS-Veh: 0.075±0.010 g; ALS-Gin 0.090±0.007 g) (FIG. 22, left panel, and Table 4).

Experiment [8] deals with G93A*SOD1 ALS mice. The experiment is described as follows: Gastrocnemius muscle mass and muscle mass index. The format is in vivo. The method, then: as §3, §4
Specifically, muscle function was assessed using a grip test and a walking or stride test at the termination of the study. After conclusion of the grip function and stride function tests, the mice were then sacrificed and skeletal muscle tissues weighed to determine muscle mass.

Experiment [9] deals with CHOP. As to the kind of experiment: CHOP protein level in gastrocnemius muscle by western blot. The format is in vivo, mice. As to conditions: 10 mg/kg ip daily; p<0.05 vs. ALS-Veh. How it is done:
Total protein was determined using a BCA protein assay kit (Thermo Scientific). Samples were then solubilized in loading buffer and denatured (5 min at 100° C.). For assessment of changes in protein expression levels, 15-30 μg total protein were loaded on bis-acrylamide gels and analyzed by polyacrylamide gel electrophoresis (PAGE). The amount of protein loaded for each endpoint was determined by separate analysis of the linear range for each antibody. Samples were then transferred to PVDF membrane (Millipore) and blocked with 5% (w/v) non-fat dry milk powder in Tris-buffered saline (pH 8.0) for 1 hr. […] Secondary antibodies were detected using HRP-linked chemiluminescence with SuperSignal West Dura Chemiluminescence Substrate (Thermo Scientific) and imaged using a chemiluminescence imaging system (GeneGnome, Syngene). The signal for the target protein of each sample was quantified and expressed in arbitrary unit (AU) and then values for each ALS and CON mouse expressed as a ratio relative to the first CON mouse (CON1) at each age. […]
The response of skeletal muscle to the ER stress markers was also assessed in response to gingerol treatment, namely by examining the levels of the apoptotic factor CHOP.

The subject of experiment [10] is G93A*SOD1 ALS mice. As to the kind of experiment: Grip function test. Type of experiment: in vivo. As to conditions: 10 mg/kg ip daily. How it is done: as §3, §4
Briefly, mice are placed on a metal grid (20 cm wide, 40 cm long; grid placed 40 cm above table) and allowed to grip with fore- and hind-limb paws prior to inverting the grid. Timing begins once the grid is inverted and stops once the mouse can no longer hold the lid.

The test system of experiment [11] is GRP78/BiP. As to the kind of experiment: GRP78/BiP protein level in gastrocnemius muscle by western blot. Type of experiment: in vivo, mice. As to conditions: n=5. The method, then:
as §1

Experiment [12] relates to G93A*SOD1 ALS mice. The experiment is described as follows: Stride length test. The format is in vivo. As to conditions: 10 mg/kg ip daily; p=0.13. The method, then: as §3, §4
Briefly, fore- and hind-limb paws are dipped in non-toxic paint and mice walk across a 120 cm table covered in white paper. A dark box with food is placed at the far end to encourage walking across the table. The distance between the fore- and hind-limb ink marks are then measured. Four strides per mouse are quantified and the average stride length determined

The subject of experiment [13] is single muscle fibres from the flexor digitorum brevis (FDB) muscle. The experiment is described as follows: Intracellular Ca2+ handling (Fura-2) in single muscle fibres from treated mice. Type of experiment: in vivo. The method, then: For e-c coupling measurements, fibres were loaded with 1 μM Fura-2 AM in MEM/FBS media for 15 min at room temperature. Fura-2 AM media was then removed by quick centrifugation and fibres were resuspended in fresh MEM/FBS media. Fibres loaded with Fura-2 were placed in a culture/stimulation chamber (Cell MicroControls) containing parallel electrodes on top of a Nikon TiU microscope. Once in the chamber, fibres were continuously perfused with stimulating tyrode (121 mM NaCl, 5 mM KCl, 1.8 mM CaCl2, 0.5 mM MgCl2, 0.4 mM NaH2PO4, 24 mM NaHCO3, and 5.5 mM glucose) pH 7.3 when continuously bubbled with 95% O2/5% CO2 using a Gilson Minipuls 3 peristaltic pump and vacuum pump. Intracellular Ca^2+ levels were assessed by Fura-2 fluorescence ratio (ratio of excitation at 340 and 380 nm; emission at 510 nm) using the IonOptix Hyperswitch system, with the Hyperswitch enabling collection of ratiometric data at a frequency of 250 Hz. Ratios were converted to intracellular free Ca^2+ concentration ([Ca^2+]i). The Fura-2 ratio was calibrated in vivo using the Ca^2+ ionophore A23187 and 10 mM EGTA or 1 mM CaCl2, with Rmin and Rmax determined to be 0.33 and 3.50, respectively. The Kd for Ca^2+ for Fura-2 was 224 nM.
Fura-2 loaded single fibres were stimulated using 350 ms tetani, 0.5 ms pulse duration at 10, 30, 50, 70 and 100, 120 and 150 Hz stimulation frequencies (S48 Square Pulse Stimulator, GRASS Technologies) with one minute rest between frequencies. All single fibre data was collected at room temperature (23 degrees Celsius). […]
After conclusion of the grip function and stride function tests, mice were then sacrificed and single muscle fibres were obtained immediately from the flexor digitorum brevis (FDB) muscle and intracellular Ca^2+ handling assessed using Fura-2 as discussed above in Example 1. Changes in Fura-2 ratio, representing changes in [Ca^2+]i, were measured under resting conditions and in response to electrical stimulation at a range of physiological frequencies (10-150 Hz). […]

On to `CCCCC[C@H](O)CC(=O)CCc1ccc(O)c(OC)c1` [6-gingerol], for which, in experiment [1], the “Ca^2+ ATPase maximum activity (SERCA activity), ALS-Gin relative to ALS-Veh” value is “increased; also recorded: restored Ca^2+ ATPase maximum activity”. The “PDI protein level, ALS-Gin compared to ALS-Veh” value in experiment [2] was “decreased”. The “PERK protein level, ALS-Gin compared to ALS-Veh” value in [3] is “decreased”. Moreover, the “IRE1α protein level, ALS-Gin compared to ALS-Veh” value in [4] was “decreased”. Also, in experiment [5], the “SERCA1 protein level in gastrocnemius muscle, ALS-Gin compared to ALS-Veh” value is listed as “dramatic increase”. For the same compound, in experiment [6], the “SERCA2 protein level, rescue of the decrease with 6-gingerol treatment” value is “minimal rescue”. The “Effect of 6-gingerol on body weight” value in experiment [7] (ALS-Gin vs. ALS-Veh, 10 mg/kg ip daily, 10 mg/kg) is “no significant improvement”. For the same compound, the Body weight in experiment [7] (ALS-Gin: G93A*SOD1 mice, 10 mg/kg ip daily from 35 d, evaluated at 115±5 d, CON-Veh 21.0±2.7, ALS-Veh 17.8±1.4) was 18.2 ± 0.7 g. In addition, the “Muscle mass index (mg muscle per g body weight), reduction in ALS” value in [8] (ALS-Gin vs. ALS-Veh) is recorded as “attenuated”. The “Improvement in muscle mass with 6-gingerol” value in [8] (ALS-Gin vs. ALS-Veh, 10 mg/kg ip daily) was found to be 21%. In addition, the Gastrocnemius muscle mass in experiment [8] (ALS-Gin, 10 mg/kg ip daily 35-115 d, CON-Veh 0.111±0.015, ALS-Veh 0.075±0.010) worked out at 0.090 ± 0.007 g. Moreover, in [9], the “CHOP protein level in skeletal muscle, ALS-Gin vs. ALS-Veh” value was “significantly attenuated”. In addition, the “Grip test time, difference ALS-Gin vs. ALS-Veh” value in experiment [10] (p<0.10) is recorded as “did not reach significance”. In addition, the “Grip function, % of CON-Veh level” value in [10] (ALS-Gin, ALS-Veh 17% of CON-Veh, p=0.08) is on record as 42%. Besides, the “GRP78/BiP protein level, ALS-Gin compared to ALS-Veh” value in experiment [11] is recorded as “decreased”. Moreover, the “Stride length, difference ALS-Gin vs. ALS-Veh” value in experiment [12] is recorded as “tendency to improve; also recorded: did not reach statistical significance”. Besides, the “Effect of 6-gingerol on peak Fura-2 ratio (10 Hz)” value in [13] (ALS-Gin vs. ALS-Veh) was “no attenuation; also recorded: no improvement”. Further, the “Ca^2+ decay time, ALS-Gin vs. ALS-Veh” value in experiment [13] (single FDB fibres, after 50 and 100 Hz tetani, p<0.11) was “tendency for improvement; also recorded: trend for single fibres from ALS-Gin to have a faster decay time”. In addition, the “Resting Fura-2 ratio, ALS-Gin vs. ALS-Veh” value in experiment [13] (single FDB fibres, p=0.13) was “lower but did not reach statistical significance; also recorded: tendency for Fura-2 ratio to be lower”.
